Experimental findings from US9796700B2 (Celgene CAR LLC, priority 2013, dated 2017) are described below.

SMILES strings stand for the structures.

One may read the IC50 as the concentration that inhibits the measured activity by half. In general, EC50 refers to the midpoint of the concentration-response curve.

Assay [1] deals with T1, Erk1 (Homo sapiens (Human), UniProt P27361). Nature of the assay: Protein Mass Modification Assay (intact protein MALDI). The assay is classed as binding. The procedure, abridged:
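Percent covalent modification comes from the intact-protein MALDI centroid mass shift, treated versus control, divided by compound MW. Before analysis, human Erk1 was exposed to compound at 10-fold excess over protein for 60 min at room temperature.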
Target sequence in this assay (P27361 whole entry, looked up): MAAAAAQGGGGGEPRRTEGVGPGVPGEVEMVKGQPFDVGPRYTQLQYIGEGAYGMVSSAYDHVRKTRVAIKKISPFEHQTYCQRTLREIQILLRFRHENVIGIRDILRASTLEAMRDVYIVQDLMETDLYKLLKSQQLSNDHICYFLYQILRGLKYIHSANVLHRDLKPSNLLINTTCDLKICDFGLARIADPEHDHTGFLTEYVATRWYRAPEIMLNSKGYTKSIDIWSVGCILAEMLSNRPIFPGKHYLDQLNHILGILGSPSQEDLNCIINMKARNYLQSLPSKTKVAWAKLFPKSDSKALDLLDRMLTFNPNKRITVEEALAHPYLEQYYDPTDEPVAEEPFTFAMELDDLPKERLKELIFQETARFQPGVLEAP

The target of another assay is MEK1 activated ERK1 (Homo sapiens (Human), UniProt P27361). Nature of the assay: Omnia continuous-read kinase assay for potency against MEK1 activated ERK1. The format is biochemical. To be noted: MEK1 activated ERK1, WT, ATP at KM. The gist of the method: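 Apparent IC50 came from initial reaction slopes (RFU vs time) plotted against log inhibitor with a variable-slope fit. Reactions were started with ERK1 (4 nM final) added to 50 μM ATP, roughly at its appKM, and 10 μM Sox-conjugated ST17 peptide in 20 mM Tris pH 7.5, 5 mM MgCl2. Fluorescence was monitored every 71 seconds.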
Chain of MEK1 activated ERK1 (P27361 whole entry): as the sequence (P27361 whole entry, looked up) above

For assay [2], the system named is p-RSK (ERK activity) in cells after compound washout. Nature of the assay: Measurement of duration of action of test compounds (pRSK after washout). The format is cell-based. To be noted: 6 hr after compound washout. On the procedure:
The protocol below describes an assay to measure the kinase activity of ERK1 to phosphorylate its substrate, RSK, in the presence of a test compound. This experiment was conducted using a Mesoscale Discovery plate. The day before the assay, HT29 cells were split and plated at 50,000 cells/well in complete growth media. After allowing cells to adhere, the media was removed and replaced with media containing 0.1% FBS and incubated overnight. Blank MDS plates were coated with 25 μl/well RSK capture antibody and incubated at 4° C. overnight. The next day, the media was removed and replaced with 100 μl of media containing a test compound and incubated for 120 minutes at 37° C. The media was removed and replaced with 55 μl of well lysis buffer with protease and phosphatase inhibitors provided in the kit, followed by incubation at 4° C. for 30 minutes. 50 μl of lysate was transferred to a blocked MSD plate, followed by incubation at room temperature for 2 hours under constant shaking. The plate was washed 3 times with MSD wash buffer (cat#R617TX), and 25 μl/well phospho-RSK (pRSK) detection antibody was added with an appropriate Sulfo-tagged anti-species detection antibody diluted in 1% BSA in MSD wash buffer. This mixture was incubated for 1 hour at room temperature under constant shaking. The plate was washed 3 times, and 150 μl 1×MSD read buffer was added, followed by signal detection in an MSD plate reader.
Measurement of Duration of Action of Test Compounds
One day before the assay, the cells were split and added at 50,000 cells per well in flat-bottom 96 well plate in 200 μl of growth media. The next day, the medium was discarded, 100 μl medium containing test compounds was added, and the plate was incubated at 37° C. for 120 minutes. The medium was discarded, and the cells were rinsed 3 times with PBS followed by addition of 200 μl of fresh grow medium. The plate was returned to a 37° C. incubator, and separate cell lysates were made using MSD lysis buffer after 0.25, 0.5, 1, 2, 4, 6, 8 and 18 or 24 hours. Thereafter, pRSK was measured as described above in the section entitled pRSK MSD Assay. The data is presented in Table A under the column titled “p-RSK inhibition at 6 hr (%).”

In assay [3] the test system is ERK1 phosphorylation of its substrate RSK in HT29 cells. Nature of the assay: pRSK MSD Assay in HT29 cells. To be noted: Homo sapiens, HT-29, HT29 cells; read-out: ERK1 PRSK MSD HT29 EC50. The format is cell-based. The procedure, abridged: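 HT29 cells were serum-starved overnight in 0.1% FBS, then treated with compound for 120 min at 37 °C. Lysates were assayed on MSD plates with RSK capture and phospho-RSK detection antibodies using electrochemiluminescence read-out.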

The target of assay [4] is T1, Erk1. Description: Measurement of Erk occupancy with biotinylated covalent probe I-299. The assay is classed as cell-based. To be noted: HT-29 cells. On the procedure: Measurement of Erk Occupancy with Biotinylated Covalent Probe
This experiment measured occupancy of the ERK1 target by compounds according to the invention. This experiment was conducted using the Mesoscale Discovery test kit (Cat. #N45107B). One day before the assay, cells were split and added at 50,000 cells per well to a flat-bottom 96 well plate in 200 μl of growth medium. The next day, the medium was discarded, 100 μl medium containing test compound was added, and the plate was incubated at 37° C. for 120 minutes. The plate was rinsed once with PBS, and 50 μl lysis buffer with test compound was added. The plate was incubated at 4° C. for 30 min, and 30 μl of lysate was transferred to a plate to capture total and phosphor-Erk. Biotinylated probe I-299 was diluted in lysis buffer and added to each well to a final concentration of 0.2 μM. The plate was incubated for 2 hr under constant shaking at room temperature. The plate was washed 3 times with MSD wash buffer. To detect the biotinylated probe bonding, tagged streptavidin was added (MSD, Cat#R32AD-1) at 1 μg/ml, 25 μl/well, followed by a 60 min incubation under shaking. The plate was washed 3 times, 150 μl MSD Read Buffer (Cat#R61TX) was added and the plate was read in a plate reader manufactured by MSD. Percent occupancy by test compound at Erk was calculated by comparing the chemiluminescence readings from treated cells as compared to the chemiluminescence readings in untreated controls (which are defined as 100% probe bonding or 0% occupancy). The amount of covalent probe signal divided by the amount of ERK signal for samples with no test compound treatment represents the maximum probe signal (MPS). In samples treated with test compound prior to covalent probe, the ratio of probe signal to ERK signal (the test probe signal, TPS) was reduced by the degree of target occupancy by the test compound which blocks covalent probe binding. The difference between the MPS and the TPS, divided by the MPS gave the target occupancy by the test compound. This ratio was then expressed as a percent occupancy. Results from this assay are provided in Table A below under the column “Occupancy EC50 (nM) HT-29.”
Target sequence in this assay (P27361 2-379 limits assumed): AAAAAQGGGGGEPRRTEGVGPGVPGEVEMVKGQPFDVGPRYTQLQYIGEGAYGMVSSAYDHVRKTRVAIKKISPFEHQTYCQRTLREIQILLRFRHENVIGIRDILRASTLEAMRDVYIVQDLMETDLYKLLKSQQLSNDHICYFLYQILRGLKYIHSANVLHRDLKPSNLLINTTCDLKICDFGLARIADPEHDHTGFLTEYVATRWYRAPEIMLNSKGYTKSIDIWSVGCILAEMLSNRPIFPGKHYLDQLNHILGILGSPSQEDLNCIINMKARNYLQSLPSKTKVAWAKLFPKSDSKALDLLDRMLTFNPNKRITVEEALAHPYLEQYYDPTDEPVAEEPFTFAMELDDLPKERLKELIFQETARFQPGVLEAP

As for `C=CC(=O)Nc1cc(C)ccc1Nc1nc(Nc2cc(OC)ncc2C)ncc1Cl` [Compound I-241, N-(2-((5-chloro-2-((2-methoxy-5-methylpyridin-4-yl)amino)pyrimidin-4-yl)amino)-5-methylphenyl)acrylamide], the “ERK1 Mass Mod (%)” value at Erk1 [1] is reported as “E (provided a mass modification of ≧70%)”. The IC50 on MEK1 activated ERK1 was less than 100 nM. In addition, the “p-RSK inhibition at 6 hr (%)” value in assay [2] is recorded as “E (provided a p-RSK inhibition percent of ≧70%)”.
The matching figures for `C=CC(=O)Nc1cc(C)ccc1Nc1nc(N[C@H]2CCCN(C(=O)CO)C2)ncc1Cl` [Compound I-140, (S)—N-(2-((5-chloro-2-((1-(2-hydroxyacetyl)piperidin-3-yl)amino)pyrimidin-4-yl)amino)-5-methylphenyl)acrylamide]: “E (provided a mass modification of ≧70%)”, less than 100 nM and “F (provided a p-RSK inhibition percent of 31-69%)”.
For `C=CC(=O)Nc1ccccc1Nc1nc(Nc2cc(OC)ncc2C)ncc1Cl` [Compound I-240, N-(2-((5-chloro-2-((2-methoxy-5-methylpyridin-4-yl)amino)pyrimidin-4-yl)amino)phenyl)acrylamide], in that order: “E (provided a mass modification of ≧70%)”, less than 100 nM and “E (provided a p-RSK inhibition percent of ≧70%)”.
The matching figures for `C=CC(=O)Nc1cc(C)ccc1Nc1nc(Nc2cc(C(N)=O)ccc2C)ncc1Cl` [Compound I-229, 3-((4-((2-acrylamido-4-methylphenyl)amino)-5-chloropyrimidin-2-yl)amino)-4-methylbenzamide]: “E (provided a mass modification of ≧70%)”, less than 100 nM and “E (provided a p-RSK inhibition percent of ≧70%)”.
In the case of `C=CC(=O)Nc1ccccc1Nc1nc(Nc2cc(OC)ncc2C)ncc1C(F)(F)F` [Compound I-85, N-(2-((2-((2-Methoxy-5-methylpyridin-4-yl)amino)-5-(trifluoromethyl)pyrimidin-4-yl)amino)phenyl)acrylamide], the “ERK1 Mass Mod (%)” value at Erk1 [1] was “G (proived a mass modification ≦30%)”. In addition, the IC50 on MEK1 activated ERK1 fell in the range of 101 to 500 nM. Further, the “p-RSK inhibition at 6 hr (%)” value in assay [2] is “E (provided a p-RSK inhibition percent of ≧70%)”.
Consider `C=CC(=O)Nc1ccccc1Nc1nc(N[C@H]2CCCN(C(=O)CO)C2)ncc1C(F)(F)F` [Compound I-15, (S)—N-(2-((2-((1-(2-hydroxyacetyl)piperidin-3-yl)amino)-5-(trifluoromethyl)pyrimidin-4-yl)amino)phenyl)acrylamide], for which, at Erk1 [1], the “ERK1 Mass Mod (%)” value is listed as “E (provided a mass modification of ≧70%)”. Also, the concentration for half-maximal inhibition (IC50) at MEK1 activated ERK1 is less than 100 nM. Further, the EC50 in assay [3] is less than 100 nM. In addition, the “p-RSK inhibition at 6 hr (%)” value in assay [2] was “E (provided a p-RSK inhibition percent of ≧70%)”.
In the case of `C=CC(=O)Nc1ccccc1Nc1nc(Nc2cc(C(N)=O)ccc2C)ncc1C(F)(F)F` [Compound I-68, 3-(4-(2-Acrylamidophenylamino)-5-(trifluoromethyl)pyrimidin-2-ylamino)-4-methylbenzamide], the “ERK1 Mass Mod (%)” value at Erk1 [1] is reported as “E (provided a mass modification of ≧70%)”. At MEK1 activated ERK1, the concentration for half-maximal inhibition (IC50) is less than 100 nM. This compound also yielded a 50% effective concentration (EC50) on Erk1 [4] of less than 100 nM. Further, in assay [2], the “p-RSK inhibition at 6 hr (%)” value was “E (provided a p-RSK inhibition percent of ≧70%)”.
On to `C=CC(=O)Nc1ccccc1Nc1nc(Nc2cncc(OC)c2)ncc1C(F)(F)F` [Compound I-86, N-(2-((2-((5-Methoxypyridin-3-yl)amino)-5-(trifluoromethyl)pyrimidin-4-yl)amino)phenyl)acrylamide], for which the half-inhibitory concentration (IC50) on MEK1 activated ERK1 is less than 100 nM. Besides, the “p-RSK inhibition at 6 hr (%)” value in assay [2] is recorded as “E (provided a p-RSK inhibition percent of ≧70%)”.
For the compound `C=CC(=O)Nc1cc(OC)ccc1Nc1nc(Nc2cc(OC)ncc2C)ncc1Cl` [Compound I-242, N-(2-((5-chloro-2-((2-methoxy-5-methylpyridin-4-yl)amino)pyrimidin-4-yl)amino)-5-methoxyphenyl)acrylamide], the “ERK1 Mass Mod (%)” value on Erk1 [1] is recorded as “E (provided a mass modification of ≧70%)”. Besides, on MEK1 activated ERK1, the IC50 was less than 100 nM. In assay [2], the “p-RSK inhibition at 6 hr (%)” value is recorded as “E (provided a p-RSK inhibition percent of ≧70%)”.
On to `C=CC(=O)Nc1cc(C)ccc1Nc1nc(Nc2cc(C(N)=O)ccc2C)ncc1C(F)(F)F` [Compound I-79, 3-((4-((2-Acrylamido-4-methylphenyl)amino)-5-(trifluoromethyl)pyrimidin-2-yl)amino)-4-methylbenzamide], for which the “ERK1 Mass Mod (%)” value on Erk1 [1] is “E (provided a mass modification of ≧70%)”. Besides, the “p-RSK inhibition at 6 hr (%)” value in assay [2] is given as “E (provided a p-RSK inhibition percent of ≧70%)”.
In the case of `C=CC(=O)Nc1ccccc1Nc1nc(Nc2ccc(F)cc2C#N)ncc1Cl` [Compound I-211, N-(2-((5-chloro-2-((2-cyano-4-fluorophenyl)amino)pyrimidin-4-yl)amino)phenyl) acrylamide], the “ERK1 Mass Mod (%)” value at Erk1 [1] is on record as “F (provided a mass modification of 31-69%)”. The 50% inhibitory concentration (IC50) on MEK1 activated ERK1 is less than 100 nM. Also, the concentration giving a half-maximal response (EC50) on Erk1 [4] is less than 100 nM.
As to `C=CC(=O)Nc1ccccc1Nc1nc(Nc2cc(C(N)=O)c(F)cc2C)ncc1Cl` [Compound I-214, 5-((4-((2-acrylamidophenyl)amino)-5-chloropyrimidin-2-yl)amino)-2-fluoro-4-methylbenzamide], the “ERK1 Mass Mod (%)” value at Erk1 [1] is given as “F (provided a mass modification of 31-69%)”. In addition, the IC50 at MEK1 activated ERK1 was less than 100 nM. In addition, the EC50 on Erk1 [4] was less than 100 nM.
